Data as given in patent publication EP4458830A1, “TRICYCLIC COMPOUND, METHOD FOR PREPARING SAME, AND USE THEREOF” (Sichuan Kelun-Biotech Biopharmaceutical Co., Ltd., priority 2021, dated 2023).
pEC50: −log10 of the molar value.

Experiments:
[1] = target: T1, human TLR8 (Homo sapiens, UniProt Q9NR97); experiment: Agonistic activity of compounds on HEK-Blue hTLR8 cells (QUANTI-Blue reporter, OD620); assay type: cell-based; conditions: for pEC50 / Emax: HEK-Blue hTLR8 cells; for pEC50: 20 hours incubation; for Emax: OD620 at which the activation effect reached the maximum; for activation effect on human TLR8: summary in words
T1 construct: host or cells: HEK-Blue hTLR8 cells (HEK293-derived reporter line; that the line is stably transfected with the human TLR8 gene is own knowledge of the vendor's product)
T1 sequence (Q9NR97 27-1041): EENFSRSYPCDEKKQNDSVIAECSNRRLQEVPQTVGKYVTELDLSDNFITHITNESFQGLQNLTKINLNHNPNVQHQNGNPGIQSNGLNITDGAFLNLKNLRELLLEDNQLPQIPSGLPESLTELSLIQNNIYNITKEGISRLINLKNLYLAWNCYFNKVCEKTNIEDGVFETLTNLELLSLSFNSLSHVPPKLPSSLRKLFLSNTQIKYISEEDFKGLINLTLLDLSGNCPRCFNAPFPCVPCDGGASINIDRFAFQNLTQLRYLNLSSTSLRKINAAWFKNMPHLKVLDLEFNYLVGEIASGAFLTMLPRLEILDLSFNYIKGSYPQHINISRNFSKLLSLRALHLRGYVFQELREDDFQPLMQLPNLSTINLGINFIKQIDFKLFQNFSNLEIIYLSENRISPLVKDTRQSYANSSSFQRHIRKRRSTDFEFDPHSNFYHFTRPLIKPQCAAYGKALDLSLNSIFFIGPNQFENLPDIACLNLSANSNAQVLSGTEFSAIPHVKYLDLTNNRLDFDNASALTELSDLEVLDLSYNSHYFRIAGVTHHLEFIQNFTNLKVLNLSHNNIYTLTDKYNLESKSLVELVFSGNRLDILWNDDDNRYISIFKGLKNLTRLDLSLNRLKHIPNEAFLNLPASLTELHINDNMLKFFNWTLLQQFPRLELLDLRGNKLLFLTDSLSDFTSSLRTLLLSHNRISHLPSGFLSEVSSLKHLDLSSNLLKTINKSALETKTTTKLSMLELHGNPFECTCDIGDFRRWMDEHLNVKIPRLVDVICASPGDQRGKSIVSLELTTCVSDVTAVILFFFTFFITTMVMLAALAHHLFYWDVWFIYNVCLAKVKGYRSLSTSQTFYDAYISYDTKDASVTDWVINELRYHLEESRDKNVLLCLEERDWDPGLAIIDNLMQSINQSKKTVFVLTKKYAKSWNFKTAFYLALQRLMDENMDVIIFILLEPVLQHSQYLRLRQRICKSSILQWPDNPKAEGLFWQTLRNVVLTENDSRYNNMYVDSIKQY
Experimental: • 1. HEK-Blue hTLR8 cells (Invivogen) were cultured in DMEM medium (Hyclone) containing 10% FBS heat-inactivated fetal bovine serum (Corning). On the day of detection, the cell state was observed under a microscope, the cells were collected and resuspended, and the cell concentration was adjusted after counting, 50 µL per well, the total amount of cells was 2×10^4, and the cells were inoculated in a 96-well plate. • 2. After the cells adhered to the wall overnight, 50 µL of the test compound at different concentrations was added to the well plate, so that the final concentrations were 100 µM, 25 µM, 6.25 µM, 1.56 µM, 0.39 µM, 0.10 µM, 0.02 µM, 0.006 µM, 0 µM, or 100 µM, 33.3 µM, 11.11 µM, 3.70 µM, 1.23 µM, 0.41 µM, 0.14 µM, 0.05 µM, 0 µM, and the final concentration of DMSO was 1%. The compound was incubated with the cells in a 37°C, 5% CO2 incubator for 20 hours. • 3. After the incubation, observation was performed under microscope to determine the maximum signal well, the state of the cells with the highest and lowest concentrations of the compound, and whether the compound will crystalize at high concentration. 10 µL of cell culture supernatant was transferred to a new 96-well transparent plate, added with 90 µL of QUANTI-Blue (Invivogen) detection reagent to each well, incubated at 37°C for 3 hours, and OD620 was read with a multifunctional microplate reader (BMG LABTECH). • 4. EC50 was calculated by fitting with Graphpad Prism software log(agonist) vs. Response - Variable slope, and Emax was the OD620 at which the activation effect of the test compound reached the maximum.

[2] = target: T2, human TLR7 (Homo sapiens, UniProt Q9NYK1); experiment: Agonistic activity of compounds on HEK-Blue hTLR7 cells (QUANTI-Blue reporter, OD620); assay type: cell-based; conditions: for pEC50 / Emax: HEK-Blue hTLR7 cells; for pEC50: 20 h incubation; for Emax: OD620 at which the activation effect reached the maximum; for activation effect on human TLR7: summary in words
T2 construct: host or cells: HEK-Blue hTLR7 cells (HEK293-derived reporter line; that the line is stably transfected with the human TLR7 gene is own knowledge of the vendor's product)
T2 sequence (Q9NYK1 27-1049): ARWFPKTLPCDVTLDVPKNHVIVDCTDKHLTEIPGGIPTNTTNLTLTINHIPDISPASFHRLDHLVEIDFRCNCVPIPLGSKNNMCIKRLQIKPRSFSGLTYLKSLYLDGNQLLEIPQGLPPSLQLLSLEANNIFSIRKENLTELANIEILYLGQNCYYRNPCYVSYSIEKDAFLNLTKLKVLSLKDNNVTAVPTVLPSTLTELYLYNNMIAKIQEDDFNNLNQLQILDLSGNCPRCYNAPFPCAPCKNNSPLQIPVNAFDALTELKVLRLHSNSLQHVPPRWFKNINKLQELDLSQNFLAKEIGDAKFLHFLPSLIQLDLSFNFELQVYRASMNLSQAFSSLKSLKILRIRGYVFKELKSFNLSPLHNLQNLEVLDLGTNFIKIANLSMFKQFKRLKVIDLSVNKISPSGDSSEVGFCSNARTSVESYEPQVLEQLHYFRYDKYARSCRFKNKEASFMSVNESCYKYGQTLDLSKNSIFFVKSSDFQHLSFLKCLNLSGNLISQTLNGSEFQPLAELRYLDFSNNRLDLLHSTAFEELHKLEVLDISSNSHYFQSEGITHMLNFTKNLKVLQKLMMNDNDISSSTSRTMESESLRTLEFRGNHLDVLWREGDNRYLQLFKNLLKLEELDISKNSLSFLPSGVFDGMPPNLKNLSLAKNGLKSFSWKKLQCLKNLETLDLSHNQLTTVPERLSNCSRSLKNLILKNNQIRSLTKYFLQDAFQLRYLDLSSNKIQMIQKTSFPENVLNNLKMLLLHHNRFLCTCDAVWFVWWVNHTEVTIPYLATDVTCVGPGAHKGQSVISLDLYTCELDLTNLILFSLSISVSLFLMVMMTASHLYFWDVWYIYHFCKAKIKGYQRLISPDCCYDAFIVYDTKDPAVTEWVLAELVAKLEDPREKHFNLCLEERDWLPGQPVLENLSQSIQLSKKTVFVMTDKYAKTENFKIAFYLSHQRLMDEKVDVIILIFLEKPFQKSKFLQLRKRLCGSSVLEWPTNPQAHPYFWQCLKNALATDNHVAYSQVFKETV
Experimental: • 1. HEK-Blue hTLR7 cells (Invivogen) were cultured in DMEM medium (Hyclone) containing 10% FBS heat-inactivated fetal bovine serum (Corning). On the day of detection, the cell state was observed under a microscope, the cells were collected and resuspended, and the cell concentration was adjusted after counting, 50 µL per well, the total amount of cells was 2×10^4, and the cells were inoculated in a 96-well plate. • 2. After the cells adhered to the wall overnight, 50 µL of the test compound at different concentrations was added into the well plate, so that the final concentrations were 100 µM, 33.3 µM, 11.11 µM, 3.70 µM, 1.23 µM, 0.41 µM, 0.14 µM, 0.05 µM, 0 µM, and the final concentration of DMSO was 1%. The compound was incubated with the cells in a 37°C, 5% CO2 incubator for 20 h. • 3. After the incubation, observation under microscope was performed to determine the maximum signal well, the states of the cells with the highest and lowest concentrations of the compound, and whether the compound will crystalize at high concentration. 10 µL of cell culture supernatant was taken and transferred to a new 96-well transparent plate, 90 µL of QUANTI-Blue (Invivogen) detection reagent was added to each well, and incubated at 37°C for 3 h, and OD620 was read with a multifunctional microplate reader (BMG LABTECH). • 4. EC50 was calculated by fitting with Graphpad Prism software log(agonist) vs. response - Variable slope, and Emax was the OD620 at which the activation effect of the test compound reached the maximum.

Row | pEC50 [1] | Emax [1] | activation effect on human TLR8 [1] | pEC50 [2] | Emax [2] | activation effect on human TLR7 [2] | SMILES
1 | 5.23 | 1.43 OD620 | strong activation effect | 6.66 | 1.36 OD620 | strong activation effect | CCCCc1nc2c(N)nc3cc(C)sc3c2n1CCCCN [Compound 1, 1-(4-aminobutyl)-2-butyl-7-methyl-1H-imidazo[4,5-d]thieno[3,2-b]pyridine-4-amine]
2 | 5.05 | 1.37 OD620 | strong activation effect | 6.55 | 1.36 OD620 | strong activation effect | CCCCc1nc2c(N)nc3ccsc3c2n1CCCCN [Compound 2, 1-(4-aminobutyl)-2-butyl-1H-imidazo[4,5-d]thieno[3,2-b]pyridine-4-amine]
3 | 4.71 | 1.86 OD620 | strong activation effect | 6.33 | 1.43 OD620 | strong activation effect | CCCCc1nc2c(N)nc3cc(C)sc3c2n1CC1CCNCC1 [Compound 3, 2-butyl-7-methyl-1-(piperidin-4-ylmethyl)-1H-imidazo[4,5-d]thieno[3,2-b]pyridine-4-amine]
4 | 4.82 | 1.11 OD620 | strong activation effect | 6.36 | 1.08 OD620 | strong activation effect | CCCCc1nc2c(N)nc3cc(C4CCN(C)CC4)sc3c2[nH]1 [Compound 6, 2-butyl-7-(1-methylpiperidin-4-yl)-1H-imidazo[4,5-d] thieno[3,2-b]pyridine-4-amine]
5 |  |  |  | 5.89 | 0.49 OD620 | strong activation effect | CCCCc1nc2c(N)nc3cc(C4CCN(C)CC4)sc3c2n1CC1CCN(C)CC1 [Compound 38, 2-butyl-7-(1-methylpiperidin-4-yl)-1-((1-methylpiperidin-4-yl)methyl)-1H-imidazo[4,5-d]thieno[3,2-b]pyridine-4-amine]
6 |  |  |  | 6.24 | 1.83 OD620 | strong activation effect | CCCCc1nc2c(N)nc3cc(C4CCOCC4)sc3c2n1CC1CCN(C)CC1 [Compound 40, 2-butyl-1-((1-methylpiperidin-4-yl)methyl)-7-(tetrahydro-2H-pyran-4-yl)-1H-imidazo[4,5-d]thieno[3,2-b]pyridine-4-amine]
7 |  |  |  | 5.30 | 0.84 OD620 | strong activation effect | CCCCc1nc2c(N)nc3cc(C4CCNCC4)sc3c2n1CC1CCN(CCOC)CC1 [Compound 41, 2-butyl-7-(hexahydropyridin-4-yl)-1-{[1-(2-methoxyethyl)hexahydropyridin-4-yl]methyl}thieno[3,2-b]imidazo[4,5-d]pyridine-4-amine]
8 |  |  |  | 5.84 | 0.65 OD620 | strong activation effect | CCCCc1nc2c(N)nc3cc(C4CCN(C)CC4)sc3c2n1CC1CCN(CCOC)CC1 [Compound 42, 2-butyl-1-{[1-(2-methoxyethyl)hexahydropyridin-4-yl]methyl}-7-(1-methylhexahydropyridin-4-yl)thieno[3,2-b]imidazo[4,5-d]pyridine-4-amine]
9 |  |  |  | 5.83 | 1.44 OD620 | strong activation effect | COCCc1nc2c(N)nc3ccsc3c2n1CC1CCNCC1 [Compound 55, 1-(hexahydropyridin-4-ylmethyl)-2-(2-methoxyethyl) thieno[3,2-b]imidazo[4,5-d]pyridine-4-amine]
10 |  |  |  | 6.34 | 1.41 OD620 | strong activation effect | COCCc1nc2c(N)nc3ccsc3c2n1CC1CCN(C)CC1 [Compound 56, 2-(2-methoxyethyl)-1-[(1-methylhexahydropyridin-4-yl)methyl] thieno[3,2-b]imidazo[4,5-d]pyridine-4-amine]

Row | SMILES | pEC50 [1] | Emax [1] | activation effect on human TLR8 [1] | pEC50 [2] | Emax [2] | activation effect on human TLR7 [2]
11 | CCCCc1nc2c(N)nc3cc(C4CCN(C(C)=O)CC4)sc3c2n1CC1CCOCC1 [Compound 59, 1-{4-[4-amino-2-butyl-1-(3,4,5,6-tetrahydro-2H-pyran-4-ylmethyl)thieno[3,2-b]imidazo[4,5-d]pyridin-7-yl]hexahydropyridin-1-yl}ethyl-1-one] |  |  |  | 7.40 | 1.45 OD620 | strong activation effect
